{
  "source": "EPA's ToxValDB 9.5 (doi:10.2903/j.efsa.2009.217r)",
  "key": {"Tagia sp.": {"test_system": "Tagia sp.", "conditions": "acute; duration: 14 days; mortality"}, "Anas platyrhynchos": {"test_system": "Anas platyrhynchos", "conditions": "oral, mortality"}, "Pimephales promelas": {"test_system": "Pimephales promelas", "conditions": "chronic/long-term; duration: 21 days; growth"}, "Colinus virginianus": {"test_system": "Colinus virginianus", "conditions": "acute; oral; diet; mortality"}, "Oryctolagus sp.": {"test_system": "Oryctolagus sp.", "conditions": "reproduction developmental; body weight"}, "Bibionidae": {"test_system": "Bibionidae", "conditions": "chronic/long-term; duration: 28 days"}, "Oncorhynchus mykiss": {"test_system": "Oncorhynchus mykiss", "conditions": "acute; duration: 96 hours; mortality"}},
  "data": [
    {"compound": "Oc1ccccc1-c1ccccc1", "note": "[2-Phenylphenol]", "values": [
      {"measurement": "LD50", "setting": "Rattus norvegicus; acute, oral, mortality", "result": 2730, "unit": "mg/kg-day"},
      {"measurement": "NOAEL", "setting": "Rattus norvegicus; chronic, duration: 2 years, oral, Fischer 344, histopathology: neoplastic", "result": 39, "unit": "mg/kg-day"},
      {"measurement": "NOAEL", "setting": "Rattus norvegicus; reproduction developmental", "result": 500, "unit": "mg/kg-day"},
      {"measurement": "LC50", "setting": "Tagia sp.", "result": 198, "unit": "mg/kg"},
      {"measurement": "LD50", "setting": "Anas platyrhynchos; acute, unspecified", "result": "> 2250", "unit": "mg/kg-day"},
      {"measurement": "LC50", "setting": "Anas platyrhynchos; short-term, feed", "result": "> 1900", "unit": "mg/kg-day"},
      {"measurement": "NOEC", "setting": "Pimephales promelas", "result": 0.036, "unit": "mg/L"},
      {"measurement": "LC50", "setting": "Colinus virginianus", "result": "> 2810", "unit": "mg/kg-day"},
      {"measurement": "NOAEL", "setting": "Oryctolagus sp.", "result": 100, "unit": "mg/kg-day"},
      {"measurement": "NOEC", "setting": "Bibionidae", "result": 1.85, "unit": "mg/L"},
      {"measurement": "LC50", "setting": "Oncorhynchus mykiss", "result": 4, "unit": "mg/L"}
    ]}
  ]
}
